According to PubChem BioAssay (NCI):
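All cell lines were grown in 96-well plates and treated with compound for 48 hours. The concentration for 50% growth inhibition is given as GI50. Definition used: TGI = concentration required for complete inhibition of growth.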

Columns and labels:
Experiment in all cases: NCI anticancer screen, dose series, 48 h
[1] = tested on: SN12C renal
[2] = tested on: HCC-2998 colon
[3] = tested on: OVCAR-5 ovarian
[4] = tested on: SK-MEL-5 melanoma
[5] = tested on: HCT-116 colon
[6] = tested on: SF-268 CNS
[7] = tested on: LOX IMVI melanoma
[8] = tested on: A498 renal
[9] = tested on: T-47D breast
[10] = tested on: HL-60(TB) leukemia
[11] = tested on: SK-OV-3 ovarian
[12] = tested on: SF-539 CNS
[13] = tested on: SF-295 CNS
[14] = tested on: SK-MEL-2 melanoma
[15] = tested on: NCI/ADR-RES ovarian
[16] = tested on: NCI-H460 lung
[17] = tested on: MDA-MB-231 breast
[18] = tested on: HCT-15 colon
[19] = tested on: SW-620 colon
[20] = tested on: SNB-19 CNS
[21] = tested on: SR leukemia
[22] = tested on: NCI-H522 lung
[23] = tested on: CAKI-1 renal
[24] = tested on: MOLT-4 leukemia
[25] = tested on: MALME-3M melanoma
[26] = tested on: SNB-75 CNS
[27] = tested on: COLO 205 colon
[28] = tested on: KM12 colon
[29] = tested on: HOP-92 NSCLC
[30] = tested on: 786-0 renal
[31] = tested on: UO-31 renal
[32] = tested on: RPMI-8226 leukemia
[33] = tested on: NCI-H226 lung
[34] = tested on: A549 NSCLC
[35] = tested on: M14 melanoma
[36] = tested on: HT29 colon
[37] = tested on: BT-549 breast
[38] = tested on: MCF7 breast
[39] = tested on: SK-MEL-28 melanoma
[40] = tested on: UACC-62 melanoma
[41] = tested on: OVCAR-3 ovarian
[42] = tested on: PC-3 prostate
[43] = tested on: CCRF-CEM leukemia
[44] = tested on: HOP-62 NSCLC
[45] = tested on: OVCAR-8 ovarian
[46] = tested on: RXF 393 renal
[47] = tested on: K-562 leukemia
[48] = tested on: EKVX NSCLC
[49] = tested on: MDA-MB-468 breast
[50] = tested on: TK-10 renal
[51] = tested on: DU-145 prostate
[52] = tested on: U251 CNS
[53] = tested on: UACC-257 melanoma
[54] = tested on: IGROV1 ovarian
[55] = tested on: MDA-MB-435
[56] = tested on: ACHN renal
[57] = tested on: NCI-H23 lung
[58] = tested on: OVCAR-4 ovarian
[59] = tested on: HS 578T breast

SMILES: C=CC(=O)Nc1nc(-c2cccc(NS(=O)(=O)c3cccc4c(N(C)C)cccc34)c2)cs1
- GI50 [1]: 4.56 µM
- TGI [1]: 14.5 µM
- GI50 [2]: 9.22 µM
- TGI [2]: 18.7 µM
- GI50 [3]: 9.28 µM
- TGI [3]: 18.6 µM
- GI50 [4]: 6.19 µM
- TGI [4]: 15.8 µM
- GI50 [5]: 2.38 µM
- TGI [5]: 10.5 µM
- GI50 [6]: 5.92 µM
- TGI [6]: 18.2 µM
- GI50 [7]: 1.61 µM
- TGI [7]: 4.24 µM
- GI50 [8]: 8.83 µM
- TGI [8]: 18.1 µM
- GI50 [9]: 4.64 µM
- TGI [9]: 17.7 µM
- GI50 [10]: 2.62 µM
- TGI [10]: 14.7 µM
- GI50 [11]: 14 µM
- TGI [11]: 25.9 µM
- GI50 [12]: 1.79 µM
- TGI [12]: 6.03 µM
- GI50 [13]: 9.01 µM
- TGI [13]: 18.8 µM
- GI50 [14]: 9.35 µM
- TGI [14]: 19.3 µM
- GI50 [15]: 3.78 µM
- TGI [15]: 18.3 µM
- GI50 [16]: 7.81 µM
- TGI [16]: 18.7 µM
- GI50 [17]: 3.75 µM
- TGI [17]: 13.2 µM
- GI50 [18]: 2.77 µM
- TGI [18]: 11 µM
- GI50 [19]: 2.49 µM
- TGI [19]: 10.2 µM
- GI50 [20]: 10.2 µM
- TGI [20]: 19.8 µM
- GI50 [21]: 2 µM
- TGI [21]: 20.3 µM
- GI50 [22]: 2.75 µM
- TGI [22]: 11.9 µM
- GI50 [23]: 3.74 µM
- TGI [23]: 13.2 µM
- GI50 [24]: 2.42 µM
- TGI [24]: 12.5 µM
- GI50 [25]: 8.53 µM
- TGI [25]: 17.6 µM
- GI50 [26]: 1.86 µM
- TGI [26]: 10.1 µM
- GI50 [27]: 9.08 µM
- TGI [27]: 25.3 µM
- GI50 [28]: 6.28 µM
- TGI [28]: 18 µM
- GI50 [29]: 6.16 µM
- TGI [29]: 16.4 µM
- GI50 [30]: 2.6 µM
- TGI [30]: 11.7 µM
- GI50 [31]: 5.43 µM
- TGI [31]: 15.1 µM
- GI50 [32]: 2.1 µM
- TGI [32]: 11.3 µM
- GI50 [33]: 10.9 µM
- TGI [33]: 25.8 µM
- GI50 [34]: 9.27 µM
- TGI [34]: 21.7 µM
- GI50 [35]: 4.34 µM
- TGI [35]: 16 µM
- GI50 [36]: 2.96 µM
- TGI [36]: 12.2 µM
- GI50 [37]: 2.72 µM
- TGI [37]: 9.07 µM
- GI50 [38]: 2.71 µM
- TGI [38]: 11.2 µM
- GI50 [39]: 5.99 µM
- TGI [39]: 15.3 µM
- GI50 [40]: 3.74 µM
- TGI [40]: 13.1 µM
- GI50 [41]: 2.1 µM
- TGI [41]: 10.5 µM
- GI50 [42]: 4.7 µM
- TGI [42]: 19.7 µM
- GI50 [43]: 1.69 µM
- TGI [43]: 5.33 µM
- GI50 [44]: 11.4 µM
- TGI [44]: 22.2 µM
- GI50 [45]: 7.94 µM
- TGI [45]: 22.5 µM
- GI50 [46]: 2.74 µM
- TGI [46]: 11.7 µM
- GI50 [47]: 3.15 µM
- TGI [47]: 74.8 µM
- GI50 [48]: 10.5 µM
- TGI [48]: 20.5 µM
- GI50 [49]: 1.96 µM
- TGI [49]: 6.71 µM
- GI50 [50]: 3.07 µM
- TGI [50]: 10.6 µM
- GI50 [51]: 5.4 µM
- TGI [51]: 15.2 µM
- GI50 [52]: 9.04 µM
- TGI [52]: 18.9 µM
- GI50 [53]: 9.31 µM
- TGI [53]: 19.4 µM
- GI50 [54]: 7.67 µM
- TGI [54]: 16.4 µM
- GI50 [55]: 3.02 µM
- TGI [55]: 13.9 µM
- GI50 [56]: 3.87 µM
- TGI [56]: 13.3 µM
- GI50 [57]: 10.4 µM
- TGI [57]: 20.8 µM
- GI50 [58]: 8.29 µM
- TGI [58]: 17.8 µM
- GI50 [59]: 4.06 µM
- TGI [59]: 26.7 µM
